Residues, ends and D or L forms follow the SMILES beside them.
How the values were obtained:
[1] = tested on: rats with alloxan diabetes; test: Tetrapeptide in different doses on the course of alloxan diabetes in rats (Example 4); type: in vivo, rat; conditions: for increase in the blood glucose level as compared to the controls: dose of 1 μg; for decrease of glucose level: dose of 10 μg
Experimental: The study was performed on 23 white mongrel male rats weighing on average […]. All the animals were subject to single intravenous administration of 1 ml of alloxan (“Spofa”) solution in dose of […].
Then the animals were divided at random into 3 groups. Control animals were intraperitoneally administered with 0.3 ml of 0.9% NaCl solution once a day. Rats of the second and third group were administered with tetrapeptide Lys-Glu-Asp-Trp-NH2 [SEQ ID NO:1] in dose of 1 μg (in 0.1 ml of 0.9% NaCl solution) and 10 μg (in 1.0 ml of 0.9% NaCl solution) per rat during 7 days.

[2] = tested on: rats with alloxan diabetes; test: Course of alloxan diabetes in rats, prophylaxis and treatment variant (Example 3); type: in vivo, rat
Experimental: The experiment was carried out on 15 white mongrel male rats with the average body weight 375±35 g. The animals were divided randomly into 2 groups. Control animals were administered once a day intravenously with 0.3 ml of 0.9% NaCl solution, while the main group animals were administered with Lys-Glu-Asp-Trp-NH2 [SEQ ID NO:1] tetrapeptide in dose of 3 μg (in 0.3 ml of 0.9% NaCl solution) per rat during 7 days. After that all the animals were subject to single intravenous administration of 1 ml of alloxan solution (“Spofa”) in dose 35 mg/kg. Lys-Glu-Asp-Trp-NH2 [SEQ ID NO:1] tetrapeptide had been administered during 3 days following alloxan administration. After that […] were subject to the second Lys-Glu-Asp-Trp-NH2 [SEQ ID NO:1] tetrapeptide course from 18 day till day 28 (total 11 days) in the same dose.

## NCCCC[C@H](N)C(=O)N[C@@H](CCC(=O)O)C(=O)N[C@@H](CC(=O)O)C(=O)N[C@@H](Cc1c[nH]c2ccccc12)C(N)=O [Lys-Glu-Asp-Trp-NH2, lysyl-glutamyl-aspartyl-tryptophane amid] (H-KEDW-NH2)
[1]; 1 mkg group, 7 days after alloxan administration
  Glucose Concentration in blood: 245.6 ± 12.3 mg %
[1]; 1 mkg group, 14 days after alloxan administration
  Glucose Concentration in blood: 261.7 ± 12.3 mg %
[1]; 1 mkg group, initial level
  Glucose Concentration in blood: 80.6 ± 2.8 mg %
[1]; 1 mkg per rat, 7 days, 1 day after tetrapeptide administration
  Glucose Concentration in blood: 228.3 ± 10.7 mg %
[1]; 1 mkg per rat, 4 days after tetrapeptide administration
  Glucose Concentration in blood: 244.4 ± 12.2 mg %
[1]; 1 mkg per rat, 7 days after tetrapeptide administration
  Glucose Concentration in blood: 269.4 ± 8.6 mg %
[1]; 1 mkg per rat, 14 days after tetrapeptide administration
  Glucose Concentration in blood: 268.8 ± 12.4 mg %
[1]; 1 mkg per rat, 21 days after tetrapeptide administration
  Glucose Concentration in blood: 272.5 ± 9.9 mg %
[1]; 10 mkg group, 7 days after alloxan administration
  Glucose Concentration in blood: 247.2 ± 14.0 mg %
[1]; 10 mkg group, 14 days after alloxan administration
  Glucose Concentration in blood: 252.2 ± 7.9 mg %
[1]; 10 mkg group, initial level
  Glucose Concentration in blood: 83.9 ± 3.4 mg %
[1]; 10 mkg per rat, 7 days, 1 day after tetrapeptide administration
  Glucose Concentration in blood: 193.3 ± 6.7 mg %
[1]; 10 mkg per rat, 4 days after tetrapeptide administration
  Glucose Concentration in blood: 212.2 ± 7.3 mg %
[1]; 10 mkg per rat, 7 days after tetrapeptide administration
  Glucose Concentration in blood: 205.6 ± 8.4 mg %
[1]; 10 mkg per rat, 14 days after tetrapeptide administration
  Glucose Concentration in blood: 240.0 ± 7.9 mg %
[1]; 10 mkg per rat, 21 days after tetrapeptide administration
  Glucose Concentration in blood: 248.3 ± 13.5 mg %
[1]; 1st day after completion of the course
  increase in the blood glucose level as compared to the controls: 17.3%
[1]; 4th day after completion of the course
  increase in the blood glucose level as compared to the controls: 12.3%
[1]; day 1
  decrease of glucose level: 30%
[1]; day 4
  decrease of glucose level: 23.8%
[1]; day 7
  decrease of glucose level: 26%
[1]; day 17
  decrease of glucose level: 12.7%
[2]; 40th day after alloxan administration (control 57.1%)
  survived animals: 75%
[2]; 5 days after alloxan administration
  Glucose Concentration in blood: 247.3 ± 17.2 mg %
[2]; 7 days from the onset of tetrapeptide administration (1 course, 3 μg per rat), healthy rats before alloxan
  Glucose Concentration in blood: 94.0 ± 0.8 mg %
[2]; 14 days after alloxan administration
  Glucose Concentration in blood: 261.5 ± 39.5 mg %
[2]; 18 days after alloxan administration (start of 2nd course)
  Glucose Concentration in blood: 159.0 ± 32.6 mg %
[2]; 28 days after alloxan administration (end of 2nd course)
  Glucose Concentration in blood: 77.3 ± 1.3 mg %
[2]; 33 days after alloxan administration
  Glucose Concentration in blood: 90.7 ± 5.2 mg %
[2]; 40 days after alloxan administration
  Glucose Concentration in blood: 107.7 ± 6.4 mg %
[2]; administration to healthy animals
  effect on blood glucose level: did not lead to the decrease of blood glucose level
[2]; after one course
  decrease of blood glucose level as compared to the controls: 22-30%
[2]; after the second course, 28th, 33rd, 40th day
  blood glucose level: complete normalisation of the blood glucose level
[2]; control: 5 rats out of 7
  rats with severe form of diabetes mellitus: 2 rats out of 8
[2]; initial level, before peptide
  Glucose Concentration in blood: 76.8 ± 1.1 mg %

From patent US7491703B2, “Tetrapeptide regulating blood glucose level in diabetes mellitus” (“Access Bioscience” CJSC, priority 2003, dated 2009)
